Experiments:
[1] = xn = mol fraction of the nth substance listed; conditions: 298.15 K, 101 kPa, Liquid
[2] = refractive index (Na D-line) (dimensionless); xn = mol fraction of the nth substance listed; conditions: 298.15 K, 101 kPa, Liquid, Standard Abbe refractometry

CCCCn1cc[n+](C)c1.COS(=O)(=O)[O-] [1-butyl-3-methylimidazolium methyl sulfate] + CCO
Conditions	mass density, [1] [kg/m3]	refractive index, [2]
x1 = 0.0459	850.62	1.3791
x1 = 0.0987	909.24	1.3956
x1 = 0.142	948.07	1.4067
x1 = 0.1905	984.34	1.417
x1 = 0.2357	1012.98	1.4253
x1 = 0.2733	1033.54	1.4314
x1 = 0.3516	1069.63	1.4414
x1 = 0.4381	1101.3	1.4503
x1 = 0.5335	1129.08	1.4581
x1 = 0.5712	1138.45	1.4609
x1 = 0.6742	1160.39	1.4667
x1 = 0.7665	1176.77	1.4715
x1 = 0.8482	1188.91	1.4745
x1 = 0.9248	1199.03	1.4772

CCCCn1cc[n+](C)c1.COS(=O)(=O)[O-] [1-butyl-3-methylimidazolium methyl sulfate] + C[N+](=O)[O-]
Conditions	mass density, [1] [kg/m3]	refractive index, [2]
x1 = 0.0398	1146.67	1.3953
x1 = 0.1021	1161.66	1.4128
x1 = 0.1433	1168.87	1.4218
x1 = 0.1988	1176.21	1.4316
x1 = 0.2444	1180.95	1.4382
x1 = 0.2998	1185.58	1.4449
x1 = 0.3979	1191.69	1.4541
x1 = 0.4786	1195.47	1.4596
x1 = 0.5652	1198.52	1.4648
x1 = 0.7127	1202.66	1.4714
x1 = 0.8212	1204.74	1.4748
x1 = 0.8546	1205.4	1.4758

CCCCn1cc[n+](C)c1.COS(=O)(=O)[O-] [1-butyl-3-methylimidazolium methyl sulfate] + OCCO
Conditions	mass density, [1] [kg/m3]	refractive index, [2]
x1 = 0.0341	1195.09	1.4334
x1 = 0.0854	1115.82	1.4373
x1 = 0.1079	1172.89	1.439
x1 = 0.1946	1123.61	1.4449
x1 = 0.2446	1170.78	1.4479
x1 = 0.2999	1126.01	1.4511
x1 = 0.353	1164.56	1.454
x1 = 0.4399	1138.05	1.4582
x1 = 0.5061	1150.15	1.4616
x1 = 0.5299	1188.48	1.4625
x1 = 0.636	1143.98	1.4672
x1 = 0.717	1155.76	1.4703
x1 = 0.8055	1182.08	1.4735
x1 = 0.907	1201.87	1.4768

Source: the NIST ThermoML archive (doi:10.1016/j.jct.2008.01.023)
